Measured values published in ChEMBL document CHEMBL1177713, “Discovery of 3-[2-(imidazo[1,2-b]pyridazin-3-yl)ethynyl]-4-methyl-N-{4-[(4-methylpiperazin-1-yl)methyl]-3-(trifluoromethyl)phenyl}benzamide (AP24534), a potent, orally active pan-inhibitor of breakpoint cluster region-abelson (BCR-ABL) kinase including the T315I gatekeeper mutant” (J Med Chem, 2010).
pIC50: −log10 of the molar value.

System: BaF3
Assay: cells
Settings: Mus musculus, BaF3, 72 h
Description: Antiproliferative activity against mouse BA/F3 cells expressing ABL T315I mutant after 3 days by MTS assay

| Compound | pIC50 |
| --- | --- |
| Cc1ccc(C(=O)Nc2ccc(CN3CCN(CCF)CC3)c(C(F)(F)F)c2)cc1C#Cc1cnc2ccccn12 | 6.78 |
| Cc1ccc(C(=O)Nc2cc(-n3ccnc3CN(C)C)cc(C(F)(F)F)c2)cc1C#Cc1cnc2ccccn12 | 6.60 |
| Cc1ccc(C(=O)Nc2ccc(CN3CC[C@H](N(C)C)C3)c(C(F)(F)F)c2)cc1C#Cc1cnc2ccccn12 | 7.24 |
| Cc1ccc(C(=O)Nc2ccc(CN3CCN(C)CC3)c(C(F)(F)F)c2)cc1C#Cc1cnc2ncccn12 | 6.30 |
| CC(=O)Nc1cccn2c(C#Cc3cc(C(=O)Nc4cc(-n5ccnc5)cc(C(F)(F)F)c4)ccc3C)cnc12 | 7.36 |
| Cc1ccc(C(=O)Nc2ccc(CN3CCN(C)CC3)c(Cl)c2)cc1C#Cc1cnc2cccnn12 | 6.68 |
| Cc1ccc(C(=O)Nc2cccc(C(F)(F)F)c2)cc1C#Cc1cnc2cccnn12 | 5.95 |

Next, values leading:

| pIC50 | Compound |
| --- | --- |
| 6.63 | Cc1ccc(C(=O)Nc2cc(CN3CCN(C)CC3)cc(C(F)(F)F)c2)cc1C#Cc1cnc2ccccn12 |
| 6.68 | Cc1ccc(C(=O)Nc2ccc(CN3CCN(C)CC3)c(C(F)(F)F)c2)cc1/C=C/c1cnc2cccnn12 |
| 6.53 | Cc1ccc(C(=O)Nc2ccc(CN3CCN(C)CC3)c(C(F)(F)F)c2)cc1CCc1cnc2cccnn12 |
| 7.47 | Cc1ccc(C(=O)Nc2ccc(CN3CCNCC3)c(C(F)(F)F)c2)cc1C#Cc1cnc2cccnn12 |
| 6.59 | Cc1ccc(C(=O)Nc2ccc(CN3CCN(C)CC3)c(C3CC3)c2)cc1C#Cc1cnc2cccnn12 |
| 7.77 | Cc1ccc(C(=O)Nc2ccc(CN3CCN(C)CC3)c(C(F)(F)F)c2)cc1C#Cc1cnc2c(c1)OCC(=O)N2 |
| 7.41 | CN1CCN(Cc2ccc(NC(=O)c3cccc(C#Cc4cnc5cccnn45)c3)cc2C(F)(F)F)CC1 |
| 6.14 | Cc1ccc(C(=O)Nc2ccc(CN3CCOCC3)c(C(F)(F)F)c2)cc1C#Cc1cnc2ccccn12 |
| 7.30 | Cc1ccc(NC(=O)c2ccc(CN3CCN(C)CC3)c(C(F)(F)F)c2)cc1C#Cc1cnc2ccccn12 |

System: BaF3
Assay: cells
Settings: Mus musculus, BaF3, 72 h
Remark: another data set of the same source
Description: Antiproliferative activity against mouse BA/F3 cells expressing wild type ABL after 3 days by MTS assay

| Compound | pIC50 |
| --- | --- |
| Cc1ccc(C(=O)Nc2ccc(CN3CCN(CCF)CC3)c(C(F)(F)F)c2)cc1C#Cc1cnc2ccccn12 | 8.40 |
| Cc1ccc(C(=O)Nc2cc(-n3ccnc3CN(C)C)cc(C(F)(F)F)c2)cc1C#Cc1cnc2ccccn12 | 7.96 |
| Cc1ccc(C(=O)Nc2ccc(CN3CC[C@H](N(C)C)C3)c(C(F)(F)F)c2)cc1C#Cc1cnc2ccccn12 | 8.27 |
| Cc1ccc(C(=O)Nc2ccc(CN3CCN(C)CC3)c(C(F)(F)F)c2)cc1C#Cc1cnc2ncccn12 | 8.00 |
| CC(=O)Nc1cccn2c(C#Cc3cc(C(=O)Nc4cc(-n5ccnc5)cc(C(F)(F)F)c4)ccc3C)cnc12 | 7.96 |
| Cc1ccc(C(=O)Nc2ccc(CN3CCN(C)CC3)c(Cl)c2)cc1C#Cc1cnc2cccnn12 | 8.64 |
| Cc1ccc(C(=O)Nc2cccc(C(F)(F)F)c2)cc1C#Cc1cnc2cccnn12 | 8.00 |
| Cc1cn(-c2cc(NC(=O)c3ccc(C)c(/C=C/n4cnc5c(NC6CC6)ncnc54)c3)cc(C(F)(F)F)c2)cn1 | 8.14 |
| Cc1ccc(C(=O)Nc2cc(C(F)(F)F)ccn2)cc1/C=C/n1cnc2c(NC3CC3)ncnc21 | 8.32 |
| Cc1ccc(C(=O)Nc2cc(-n3ccnc3)cc(C(F)(F)F)c2)cc1/C=C/n1cnc2c(NC3CC3)ncnc21 | 8.38 |

More lines, in order of rising pIC50, values ahead:

| pIC50 | Compound |
| --- | --- |
| 7.96 | Cc1ccc(C(=O)Nc2cc(CN3CCN(C)CC3)cc(C(F)(F)F)c2)cc1C#Cc1cnc2ccccn12 |
| 8.10 | Cc1ccc(C(=O)Nc2ccc(CN3CCN(C)CC3)c(C(F)(F)F)c2)cc1/C=C/c1cnc2cccnn12 |
| 8.37 | Cc1ccc(C(=O)Nc2ccc(CN3CCN(C)CC3)c(C(F)(F)F)c2)cc1CCc1cnc2cccnn12 |
| 8.40 | Cc1ccc(C(=O)Nc2ccc(CN3CCNCC3)c(C(F)(F)F)c2)cc1C#Cc1cnc2cccnn12 |
| 8.41 | Cc1ccc(C(=O)Nc2ccc(CN3CCN(C)CC3)c(C3CC3)c2)cc1C#Cc1cnc2cccnn12 |
| 8.52 | Cc1ccc(C(=O)Nc2ccc(CN3CCN(C)CC3)c(C(F)(F)F)c2)cc1C#Cc1cnc2c(c1)OCC(=O)N2 |
| 8.64 | CN1CCN(Cc2ccc(NC(=O)c3cccc(C#Cc4cnc5cccnn45)c3)cc2C(F)(F)F)CC1 |
| 8.68 | Cc1ccc(C(=O)Nc2ccc(CN3CCOCC3)c(C(F)(F)F)c2)cc1C#Cc1cnc2ccccn12 |
| 8.70 | Cc1ccc(NC(=O)c2ccc(CN3CCN(C)CC3)c(C(F)(F)F)c2)cc1C#Cc1cnc2ccccn12 |

System: BaF3
Assay: cells
Settings: Mus musculus, BaF3, 72 h
Remark: another data set of the same source
Description: Antiproliferative activity against mouse BA/F3 cells after 3 days by MTS assay

| Compound | pIC50 |
| --- | --- |
| Cc1ccc(C(=O)Nc2ccc(CN3CCN(CCF)CC3)c(C(F)(F)F)c2)cc1C#Cc1cnc2ccccn12 | 6.01 |
| Cc1ccc(C(=O)Nc2cc(-n3ccnc3CN(C)C)cc(C(F)(F)F)c2)cc1C#Cc1cnc2ccccn12 | 5.15 |
| Cc1ccc(C(=O)Nc2ccc(CN3CC[C@H](N(C)C)C3)c(C(F)(F)F)c2)cc1C#Cc1cnc2ccccn12 | 6.09 |
| Cc1ccc(C(=O)Nc2ccc(CN3CCN(C)CC3)c(C(F)(F)F)c2)cc1C#Cc1cnc2ncccn12 | 5.82 |
| CC(=O)Nc1cccn2c(C#Cc3cc(C(=O)Nc4cc(-n5ccnc5)cc(C(F)(F)F)c4)ccc3C)cnc12 | 5.13 |
| Cc1ccc(C(=O)Nc2ccc(CN3CCN(C)CC3)c(Cl)c2)cc1C#Cc1cnc2cccnn12 | 5.72 |
| Cc1ccc(C(=O)Nc2cccc(C(F)(F)F)c2)cc1C#Cc1cnc2cccnn12 | 5.00 |

Results, then the molecule that gave them:

| pIC50 | Compound |
| --- | --- |
| 5.27 | Cc1ccc(C(=O)Nc2cc(CN3CCN(C)CC3)cc(C(F)(F)F)c2)cc1C#Cc1cnc2ccccn12 |
| 5.49 | Cc1ccc(C(=O)Nc2ccc(CN3CCN(C)CC3)c(C(F)(F)F)c2)cc1/C=C/c1cnc2cccnn12 |
| 5.22 | Cc1ccc(C(=O)Nc2ccc(CN3CCN(C)CC3)c(C(F)(F)F)c2)cc1CCc1cnc2cccnn12 |
| 6.04 | Cc1ccc(C(=O)Nc2ccc(CN3CCNCC3)c(C(F)(F)F)c2)cc1C#Cc1cnc2cccnn12 |
| 5.73 | Cc1ccc(C(=O)Nc2ccc(CN3CCN(C)CC3)c(C3CC3)c2)cc1C#Cc1cnc2cccnn12 |
| 6.43 | Cc1ccc(C(=O)Nc2ccc(CN3CCN(C)CC3)c(C(F)(F)F)c2)cc1C#Cc1cnc2c(c1)OCC(=O)N2 |
| 5.38 | CN1CCN(Cc2ccc(NC(=O)c3cccc(C#Cc4cnc5cccnn45)c3)cc2C(F)(F)F)CC1 |
| 5.13 | Cc1ccc(C(=O)Nc2ccc(CN3CCOCC3)c(C(F)(F)F)c2)cc1C#Cc1cnc2ccccn12 |
| 5.74 | Cc1ccc(NC(=O)c2ccc(CN3CCN(C)CC3)c(C(F)(F)F)c2)cc1C#Cc1cnc2ccccn12 |
